Some test systems named below: MDA-N; HCC-2998 colon; KM12 colon; MALME-3M melanoma; 786-0 renal; SF-295 CNS; TK-10 renal; OVCAR-4 ovarian; MDA-MB-435; HS 578T breast; M14 melanoma; A549 NSCLC; SW-620 colon; EKVX NSCLC; A498 renal; HL-60(TB) leukemia; MCF7 breast.
Holding throughout (assay): NCI-60 cell line screen, 48 h

Molecules are shown by their SMILES.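 Interpolation was linear, between the two tested concentrations surrounding the appropriate level; five concentrations were tested over 48 hours in 96-well plates. TGI is the concentration that stops growth completely.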

14 compounds from PubChem BioAssay (NCI) can be followed below.

As for `C#C[C@@H](OC(=O)c1ccc([N+](=O)[O-])cc1)[C@@H]1C[C@H]2O[C@@H]([C@H](C/C=C/CC)OC(=O)c3ccc([N+](=O)[O-])cc3)C[C@H]2O1`, the TGI in the experiment on MDA-N, with HCC-2998 colon, with KM12 colon, in the experiment with MALME-3M melanoma, in the experiment with 786-0 renal and in the experiment with SF-295 CNS was above 100 µM each time. In addition, the TGI with TK-10 renal, in the experiment with OVCAR-4 ovarian, with MDA-MB-435, with HS 578T breast, in the experiment on M14 melanoma and in the experiment with A549 NSCLC was above 100 µM throughout. Moreover, the TGI in the experiment on SW-620 colon, with EKVX NSCLC and in the experiment on A498 renal was above 100 µM throughout.

Consider `O=S(=O)(N1CCCCN(S(=O)(=O)C(F)(F)F)CCCN(S(=O)(=O)C(F)(F)F)CCCCN(S(=O)(=O)C(F)(F)F)CCCN(S(=O)(=O)C(F)(F)F)CCCCN(S(=O)(=O)C(F)(F)F)CCCN(S(=O)(=O)C(F)(F)F)CCCCN(S(=O)(=O)C(F)(F)F)CCC1)C(F)(F)F`, for which the TGI in the experiment with MDA-N was above 31.6 µM; in the experiment on HCC-2998 colon, above 31.6 µM; with HL-60(TB) leukemia, above 31.6 µM; with KM12 colon, above 31.6 µM; in the experiment on MALME-3M melanoma, above 31.6 µM; with 786-0 renal it was above 100 µM. The TGI in the experiment on SF-295 CNS was above 31.6 µM; in the experiment with TK-10 renal, above 31.6 µM; with OVCAR-4 ovarian it was above 100 µM; with MDA-MB-435, above 31.6 µM; in the experiment with HS 578T breast, above 31.6 µM; with M14 melanoma, above 31.6 µM. Besides, the TGI with A549 NSCLC, in the experiment on SW-620 colon, in the experiment on EKVX NSCLC and in the experiment on A498 renal was above 31.6 µM throughout.

With `CN1C(CC(O)c2ccccc2)CCCC1CC(O)(c1ccccc1)c1ccccc1` (centres undefined), the TGI in the experiment with MDA-N worked out at 33.5 µM; in the experiment on HCC-2998 colon it was 37.8 µM; with MCF7 breast, 43.4 µM; with HL-60(TB) leukemia, 41.8 µM; with KM12 colon, 36.6 µM; with MALME-3M melanoma, 33.8 µM. The TGI was found to be 29.1 µM with 786-0 renal; 30.8 µM in the experiment with SF-295 CNS; 38.8 µM in the experiment on TK-10 renal; 34.9 µM with M14 melanoma; 50 µM in the experiment on A549 NSCLC; 39 µM with SW-620 colon. This compound displayed a TGI in the experiment with EKVX NSCLC of 64.5 µM.

Take `CCCCCCCCCc1cc(=O)c2c(O)cc(O)cc2o1`: the TGI is above 100 µM in the experiment on MDA-N; 35.8 µM with HCC-2998 colon; 32.3 µM with HL-60(TB) leukemia; 21.3 µM in the experiment on KM12 colon; 32 µM in the experiment with MALME-3M melanoma; 42.8 µM in the experiment on 786-0 renal. Besides, the TGI with SF-295 CNS worked out at 36 µM; with TK-10 renal it was 34.5 µM; in the experiment with OVCAR-4 ovarian it was 40.9 µM; in the experiment on MDA-MB-435, 41.1 µM; in the experiment with HS 578T breast, 40.6 µM; with M14 melanoma, 34.9 µM. Besides, the TGI in the experiment on A549 NSCLC is 35.5 µM; in the experiment on SW-620 colon it was 78.1 µM; with EKVX NSCLC, 37.5 µM; in the experiment on A498 renal, 35.2 µM.

As to `Cc1[nH]c2[nH]c(=S)nc(NC(N)=S)c2c1Cc1ccccc1`, the TGI in the experiment with MDA-N is 69.1 µM; in the experiment with MCF7 breast it was above 100 µM; in the experiment on HL-60(TB) leukemia, 57.4 µM; in the experiment on KM12 colon, 40.7 µM; in the experiment with 786-0 renal, 76.1 µM; in the experiment with SF-295 CNS it was above 100 µM. The TGI was above 100 µM with TK-10 renal; 36.6 µM with MDA-MB-435; 60.6 µM in the experiment on HS 578T breast; above 100 µM in the experiment on M14 melanoma; above 100 µM with A549 NSCLC; above 100 µM with SW-620 colon. Also, the TGI in the experiment with EKVX NSCLC and with A498 renal was above 100 µM throughout.

Regarding `O=C1CCCc2cc3c(cc21)CC1(C3)Cc2cc3c(cc2C1)C(=O)CCC3`, the TGI in the experiment on HCC-2998 colon is 10.4 µM; with MCF7 breast it was 15.3 µM; with HL-60(TB) leukemia, 4.6 µM; with KM12 colon, 7.85 µM; in the experiment on MALME-3M melanoma, above 62.6 µM; in the experiment with 786-0 renal it was 64.8 µM. In addition, the TGI is above 56 µM with SF-295 CNS; 43.1 µM in the experiment with TK-10 renal; 82.7 µM in the experiment with OVCAR-4 ovarian; above 100 µM with HS 578T breast; 11.8 µM in the experiment on M14 melanoma; 53.8 µM in the experiment with A549 NSCLC. For the same compound, the TGI with SW-620 colon was above 100 µM; in the experiment with EKVX NSCLC, above 100 µM; with A498 renal, 53.6 µM.

In the case of `C=CCc1cccc(/C(O)=C/C(=O)/C=C/c2ccccc2Cl)c1O`, the TGI in the experiment with MDA-N is above 100 µM; with HCC-2998 colon, above 100 µM; in the experiment on MCF7 breast it was above 100 µM; with KM12 colon, 97 µM; with 786-0 renal, above 71.6 µM; in the experiment with SF-295 CNS, above 87.7 µM. In addition, the TGI was above 100 µM in the experiment with TK-10 renal; above 100 µM in the experiment on MDA-MB-435; above 100 µM with M14 melanoma; above 100 µM in the experiment on A549 NSCLC; 90.1 µM in the experiment with SW-620 colon; above 100 µM with EKVX NSCLC. The same compound registered a TGI in the experiment with A498 renal of 45 µM.

As to `Cc1ccc(C2SCc3nc4ccccc4n32)cc1` (centres undefined), the TGI is above 100 µM in the experiment with HCC-2998 colon; 20.3 µM with MCF7 breast; 5.94 µM in the experiment with HL-60(TB) leukemia; 20.6 µM with KM12 colon; 73.6 µM in the experiment with MALME-3M melanoma; above 100 µM in the experiment with 786-0 renal. For the same compound, the TGI with SF-295 CNS was 7.17 µM; in the experiment with TK-10 renal it was 25.1 µM; in the experiment on OVCAR-4 ovarian, 92.8 µM; in the experiment on MDA-MB-435, 5.01 µM; in the experiment with HS 578T breast, 7.17 µM; in the experiment on M14 melanoma it was above 100 µM. For the same compound, the TGI in the experiment on A549 NSCLC is above 100 µM; with SW-620 colon it was above 100 µM; in the experiment with EKVX NSCLC it was above 100 µM; in the experiment with A498 renal, 9.04 µM.

On to `COc1cccc(C=C(C#N)C#N)c1OC`, for which the TGI with MDA-N, in the experiment with HCC-2998 colon, in the experiment with MCF7 breast, in the experiment with HL-60(TB) leukemia, in the experiment on KM12 colon and in the experiment on MALME-3M melanoma was above 100 µM in each case. Besides, the TGI in the experiment on 786-0 renal, with SF-295 CNS, in the experiment with TK-10 renal, in the experiment on OVCAR-4 ovarian, in the experiment on M14 melanoma and in the experiment with A549 NSCLC was above 100 µM in each case. The TGI with SW-620 colon and with EKVX NSCLC was above 100 µM in each case.

On to `CN(C)c1ccc(/C=C2\C[C@H]3[C@@H]4CC=C5C[C@@H](O)CC[C@]5(C)[C@H]4CC[C@]3(C)[C@H]2O)cc1`, for which the TGI is 56.9 µM with MDA-N; 34.4 µM in the experiment on MCF7 breast; above 100 µM with HL-60(TB) leukemia; above 100 µM in the experiment with KM12 colon; 38.4 µM in the experiment with MALME-3M melanoma; 42 µM with 786-0 renal. Further, the TGI worked out at 44.8 µM in the experiment on SF-295 CNS; 33.7 µM with TK-10 renal; 98.6 µM in the experiment on OVCAR-4 ovarian; 50.8 µM with HS 578T breast; 41.3 µM with M14 melanoma; 38.6 µM in the experiment with A549 NSCLC. In addition, the results for the TGI with SW-620 colon, in the experiment on EKVX NSCLC and in the experiment on A498 renal were 67.3 µM, 23.8 µM and 31.5 µM, respectively.

For `CCOC(=O)COc1cc(-c2ccccc2)nc2cc(F)ccc12`, the TGI with MDA-N, with HCC-2998 colon, in the experiment with MCF7 breast, with KM12 colon, in the experiment on MALME-3M melanoma and in the experiment with 786-0 renal was above 100 µM throughout. The TGI in the experiment on SF-295 CNS, in the experiment on TK-10 renal, in the experiment with OVCAR-4 ovarian, in the experiment with MDA-MB-435, in the experiment on M14 melanoma and with A549 NSCLC was above 100 µM each time. Besides, the TGI with SW-620 colon, in the experiment with EKVX NSCLC and in the experiment with A498 renal was above 100 µM each time.

Turning to `CC(=O)O[C@H]1C(=O)[C@@]2(C)[C@H]([C@H](OC(=O)c3ccccc3)[C@]3(O)C[C@H](OC(=O)[C@H](O)[C@@H](NC(=O)C(C)(O)C(C)O)c4ccccc4)C(C)=C1C3(C)C)[C@]1(OC(C)=O)CO[C@@H]1C[C@@H]2O` (some centres undefined), the TGI with MDA-N is 0.0744 µM; in the experiment with HCC-2998 colon, 0.743 µM; with HL-60(TB) leukemia, 0.298 µM; in the experiment with MALME-3M melanoma, above 50 µM; with 786-0 renal, above 50 µM; in the experiment on SF-295 CNS, 16.5 µM. The TGI is above 50 µM in the experiment on TK-10 renal; above 50 µM in the experiment with OVCAR-4 ovarian; 0.169 µM with MDA-MB-435; 0.737 µM in the experiment with HS 578T breast; above 50 µM in the experiment with M14 melanoma; above 50 µM in the experiment on A549 NSCLC. Further, the TGI with SW-620 colon, in the experiment on EKVX NSCLC and with A498 renal was above 50 µM each time.

Regarding `CCOC(=O)CCCOc1cc(-c2ccccc2F)nc2cc3c(cc12)OCO3`, the TGI is above 100 µM in the experiment on MDA-N; 32.1 µM in the experiment with HCC-2998 colon; above 100 µM in the experiment on MCF7 breast; above 100 µM with KM12 colon; above 100 µM with MALME-3M melanoma; above 100 µM in the experiment on 786-0 renal. The TGI with TK-10 renal, in the experiment on MDA-MB-435, in the experiment on M14 melanoma, in the experiment on A549 NSCLC, in the experiment with SW-620 colon and with EKVX NSCLC was above 100 µM in each case.

Take `CN(C)c1cccc2c(S(=O)(=O)NCCCNCCN)cccc12`: the TGI was 69.6 µM in the experiment with MDA-N; 62.8 µM in the experiment with HCC-2998 colon; 43.8 µM in the experiment with HL-60(TB) leukemia; above 100 µM with KM12 colon; above 100 µM with MALME-3M melanoma; above 100 µM with 786-0 renal. Also, the TGI in the experiment with SF-295 CNS was above 100 µM; in the experiment on OVCAR-4 ovarian, above 100 µM; with MDA-MB-435, 65.8 µM; in the experiment on HS 578T breast, 76.4 µM; in the experiment with M14 melanoma it was 33.9 µM; in the experiment on A549 NSCLC, above 100 µM. Besides, the values for the TGI in the experiment with SW-620 colon, in the experiment on EKVX NSCLC and in the experiment on A498 renal were above 100 µM, above 100 µM and 91 µM, respectively.
